Counter-ions that a name gives are not always drawn.
Experiment: Excretion and recovery of radioactivity after single oral administration, target dose 1 mg free base/kg
Format: in vivo, male Sprague Dawley rats
Design: Excretion of Radioactivity, Urine / Excretion of Radioactivity, Cage Wash: unit not given beside the values
Settings: for Recovery of Radioactivity, Carcass / Recovery of Radioactivity, GI Tract: at 168 hours
Description: [^14C] N,N,-diethyl-8,8-dipropyl-2-azaspiro[4,5]decane-2-propanamine dimaleate salt, (“Compound II”) with a specific activity of 91 uCi/mg and chemical purity >99%, and non-radiolabeled dimaleate salt of N,N,-diethyl-8,8-dipropyl-2-azaspiro[4,5]decane-2-propanamine dimaleate (Compound 1) chemical purity >98%, respectively, were used in this study. The site of the radiocarbon label in Compound II is depicted by an asterisk in Formula II. The non-radiolabeled material was used for reference purposes. The radiolabeled material was stored at ca −80° C. in the dark and the non-radiolabeled material at ca −20° C. in the dark.
Three healthy male Sprague Dawley rats (Crl:CD(SD)BR), age ca 8-9 weeks, body weights at dosing 237-255 g, were supplied by Charles River (UK) Limited. The animals were housed in holding cages suitable for this species for 8 days prior to use. SDS Rat and Mouse Maintenance Diet No. 1, (Special Diets Services, Witham Essex), and mains quality water were available ad libitum throughout. The diet and water supplied to the animals were routinely analyzed for quality and no problems were detected. Holding and study areas had automatic control of light cycle and temperature. The actual range of temperature measured during the study was 17-25° C. with relative humidity measured at 60%.
The dose was prepared for oral administration on the day of dosing. […]
For each rat, an aliquot of the dose solution was administered orally by gavage. […] For each dose, the combined weight of dose and dosing equipment were recorded prior to dosing and the discharged dosing equipment was weighed after dosing. The concentration of radioactive material in each dose solution was also determined.
Immediately following dosing, the rats were placed into all glass metabolism cages suitable for the quantitative collection of excreta and expired air. All samples were collected into individual, uniquely labeled containers.
[…] The collection containers were cooled by solid CO2 during the first 48 hours after dosing.
[…] Collection containers were cooled by solid CO2 during the first 48 hours.
At the time of each feces collection, each cage was washed with water (ca 750 mL) and the washings were retained for radioassay. During the periods 0-24 h and 24-48 hours after dosing, expired air was passed through 2 serial traps containing ethanolamine:ethoxyethaonol (3:7, v/v) in order to effect the removal of CO2. The trap solvent was sampled for radioassay at the end of each collection period.
At 168 hours post dose, each animal was killed by CO2 narcosis and cervical dislocation. Gastrointestinal tracts were removed and retained separately from the carcasses in preparation for radioassay.
Duplicate aliquots of urine (ca 0.3 mL) and cage washings (ca 1 mL) were dispensed, diluted to 1 mL with distilled water (if considered necessary) and mixed with Quickzint 1 scintillation fluid (10 mL; Zinsser Analytic Maidenhead, UK).
Feces were homogenised in 1 to 2 volumes of water with the sample and homogenate weight recorded. Duplicate aliquots (ca 0.3 ) were taken from each sample and dispensed onto combustopads contained in combustocones (Canberra Packard Limited, Pangbourne, UK). When dry, these samples were combusted using a Packard Tri-Carb 306 Automatic Sample Oxidiser. The resultant ^14CO2 generated was collected by absorption in Carbo-Sorb® (8 mL; Canberra Packard Limited) to which Permafluor®E^+ scintillation fluid (10 mL; Canberra Packard Limited) was added.
For each rat, the carcass and gastro-intestinal tract with contents were solubilised in Soluene 350 (Canberra Packard). When dissolved, portions of the digest (ca 0.1 mL) were taken for liquid scintillation spectrometry. The volume was made up to 1 mL by the addition of methanol then 10 mL Quickzint was added and the samples counted as for the other liquid samples. […]

[1] = 168 hour collection period, #3 male

## CCCC1(CCC)CCC2(CCN(CCCN(CC)CC)C2)CC1 [Compound II, [^14C] N,N,-diethyl-8,8-dipropyl-2-azaspiro[4,5]decane-2-propanamine dimaleate salt]
0-6 hours, #1 male
  Excretion of Radioactivity, Urine: 0.1
0-6 hours, #2 male
  Excretion of Radioactivity, Urine: 0.1
0-6 hours, #3 male
  Excretion of Radioactivity, Urine: 0.1
0-24 hours, #1 male
  Excretion of Radioactivity, Cage Wash: 0.1
  Excretion of Radioactivity, Feces: 18.2
0-24 hours, #2 male
  Excretion of Radioactivity, Cage Wash: 0.1
  Excretion of Radioactivity, Feces: 14.7
0-24 hours, #3 male
  Excretion of Radioactivity, Cage Wash: *<0.1
  Excretion of Radioactivity, Feces: 17.7
0-24 hours, Mean
  Excretion of Radioactivity, Cage Wash: ^+0.1
  Excretion of Radioactivity, Feces: 16.9
0-48 hours
  Dose recovered in expired air: Less than 0.2 % of the dose
0-168 hours, #1 male
  Excretion of Radioactivity, Cage Wash: 0.7
  Excretion of Radioactivity, Feces: 64.0
  Excretion of Radioactivity, Urine: 6.9
0-168 hours, #2 male
  Excretion of Radioactivity, Cage Wash: 1.0
  Excretion of Radioactivity, Feces: 65.7
  Excretion of Radioactivity, Urine: 8.9
0-168 hours, #3 male
  Excretion of Radioactivity, Cage Wash: 1.3
  Excretion of Radioactivity, Feces: 66.7
  Excretion of Radioactivity, Urine: 9.8
0-168 hours, Mean
  Excretion of Radioactivity, Cage Wash: 1.0
  Excretion of Radioactivity, Feces: 65.5
  Excretion of Radioactivity, Urine: 8.5
6-24 hours, #1 male
  Excretion of Radioactivity, Urine: 0.4
6-24 hours, #2 male
  Excretion of Radioactivity, Urine: 0.5
6-24 hours, #3 male
  Excretion of Radioactivity, Urine: 0.5
6-24 hours, Mean
  Excretion of Radioactivity, Urine: 0.5
24-48 hours, #1 male
  Excretion of Radioactivity, Cage Wash: 0.1
  Excretion of Radioactivity, Feces: 16.3
  Excretion of Radioactivity, Urine: 1.0
24-48 hours, #2 male
  Excretion of Radioactivity, Cage Wash: <0.1
  Excretion of Radioactivity, Feces: 17.2
  Excretion of Radioactivity, Urine: 1.4
24-48 hours, #3 male
  Excretion of Radioactivity, Cage Wash: 0.1
  Excretion of Radioactivity, Feces: 14.5
  Excretion of Radioactivity, Urine: 1.4
24-48 hours, Mean
  Excretion of Radioactivity, Cage Wash: 0.1
  Excretion of Radioactivity, Feces: 16.0
  Excretion of Radioactivity, Urine: 1.3
48-72 hours, #1 male
  Excretion of Radioactivity, Cage Wash: <0.1
  Excretion of Radioactivity, Feces: 10.0
  Excretion of Radioactivity, Urine: 1.2
48-72 hours, #2 male
  Excretion of Radioactivity, Cage Wash: 0.2
  Excretion of Radioactivity, Feces: 15.2
  Excretion of Radioactivity, Urine: 1.5
48-72 hours, #3 male
  Excretion of Radioactivity, Cage Wash: 0.2
  Excretion of Radioactivity, Feces: 12.7
  Excretion of Radioactivity, Urine: 1.7
48-72 hours, Mean
  Excretion of Radioactivity, Cage Wash: 0.1
  Excretion of Radioactivity, Feces: 12.6
  Excretion of Radioactivity, Urine: 1.5
72-96 hours, #1 male
  Excretion of Radioactivity, Cage Wash: 0.1
  Excretion of Radioactivity, Feces: 7.5
  Excretion of Radioactivity, Urine: 1.3
72-96 hours, #2 male
  Excretion of Radioactivity, Cage Wash: 0.2
  Excretion of Radioactivity, Feces: 7.8
  Excretion of Radioactivity, Urine: 1.6
72-96 hours, #3 male
  Excretion of Radioactivity, Cage Wash: 0.3
  Excretion of Radioactivity, Feces: 8.0
  Excretion of Radioactivity, Urine: 2.0
72-96 hours, Mean
  Excretion of Radioactivity, Cage Wash: 0.2
  Excretion of Radioactivity, Feces: 7.8
  Excretion of Radioactivity, Urine: 1.6
96-120 hours, #1 male
  Excretion of Radioactivity, Cage Wash: 0.1
  Excretion of Radioactivity, Feces: 5.5
  Excretion of Radioactivity, Urine: 1.2
96-120 hours, #2 male
  Excretion of Radioactivity, Cage Wash: 0.2
  Excretion of Radioactivity, Feces: 4.1
  Excretion of Radioactivity, Urine: 1.5
96-120 hours, #3 male
  Excretion of Radioactivity, Cage Wash: 0.2
  Excretion of Radioactivity, Feces: 6.4
  Excretion of Radioactivity, Urine: 1.6
96-120 hours, Mean
  Excretion of Radioactivity, Cage Wash: 0.2
  Excretion of Radioactivity, Feces: 5.3
  Excretion of Radioactivity, Urine: 1.4
120-144 hours, #1 male
  Excretion of Radioactivity, Cage Wash: 0.1
  Excretion of Radioactivity, Feces: 3.5
  Excretion of Radioactivity, Urine: 0.9
120-144 hours, #2 male
  Excretion of Radioactivity, Cage Wash: 0.1
  Excretion of Radioactivity, Feces: 3.5
  Excretion of Radioactivity, Urine: 1.3
120-144 hours, #3 male
  Excretion of Radioactivity, Cage Wash: 0.3
  Excretion of Radioactivity, Feces: 4.3
  Excretion of Radioactivity, Urine: 1.3
120-144 hours, Mean
  Excretion of Radioactivity, Cage Wash: 0.2
  Excretion of Radioactivity, Feces: 3.8
  Excretion of Radioactivity, Urine: 1.2
144-162 hours, #1 male
  Excretion of Radioactivity, Urine: 0.8
144-162 hours, #2 male
  Excretion of Radioactivity, Urine: 1.0
144-162 hours, #3 male
  Excretion of Radioactivity, Urine: 1.2
144-162 hours, Mean
  Excretion of Radioactivity, Urine: 1.0
144-168 hours, #1 male
  Excretion of Radioactivity, Cage Wash: 0.2
  Excretion of Radioactivity, Feces: 3.0
144-168 hours, #2 male
  Excretion of Radioactivity, Cage Wash: 0.2
  Excretion of Radioactivity, Feces: 3.2
144-168 hours, #3 male
  Excretion of Radioactivity, Cage Wash: 0.2
  Excretion of Radioactivity, Feces: 3.1
144-168 hours, Mean
  Excretion of Radioactivity, Cage Wash: 0.2
  Excretion of Radioactivity, Feces: 3.1
168 hour collection period, #1 male
  Recovery of Radioactivity, Total: 96.7 % administered dose
168 hour collection period, #2 male
  Recovery of Radioactivity, Total: 103.0 % administered dose
[1]
  Recovery of Radioactivity, Cage Washings: *1.3 % administered dose
  Recovery of Radioactivity, Total: 103.2 % administered dose
168 hour collection period, Mean
  Recovery of Radioactivity, Total: 101.0 % administered dose
#1 male
  Recovery of Radioactivity, Expired air 1: *<0.1 % administered dose
  Recovery of Radioactivity, Expired air 2: *<0.1 % administered dose
  Recovery of Radioactivity, Carcass: 11.3 % administered dose
  Recovery of Radioactivity, GI Tract: 13.8 % administered dose
#2 male
  Recovery of Radioactivity, Expired air 1: *<0.1 % administered dose
  Recovery of Radioactivity, Expired air 2: *<0.1 % administered dose
  Recovery of Radioactivity, Carcass: 14.1 % administered dose
  Recovery of Radioactivity, GI Tract: 13.3 % administered dose
#3 male
  Recovery of Radioactivity, Expired air 1: *<0.1 % administered dose
  Recovery of Radioactivity, Expired air 2: *<0.1 % administered dose
  Recovery of Radioactivity, Carcass: 14.9 % administered dose
  Recovery of Radioactivity, GI Tract: 10.5 % administered dose
Mean
  Recovery of Radioactivity, Expired air 1: ^+<0.1 % administered dose
  Recovery of Radioactivity, Expired air 2: ^+<0.1 % administered dose
  Recovery of Radioactivity, Carcass: ~13.5 % administered dose
  Recovery of Radioactivity, GI Tract: ~12.5 % administered dose
mean, full 168 hour collection period
  Dose recovered in excreta and cage washings: 75.0%
Range over three rats, 168 hours
  Administered radioactive dose recovered (total): 96.7-103.2%
Up to 120 hours after dosing
  Dose recovered in the excreta: ~66 % of the dose

Reference: patent US20070015780A1, “Method of treating cancer with azaspirane compositions” (priority 2003, published 2007)
